Values quoted from earlier work, collected in EP4691460A1, “RAMELTEON SUBLINGUAL FILM AND PREPARATION METHOD THEREFOR” (Hangzhou Chengbang Pharmaceutical Technology Co., Ltd, priority 2023, dated 2024).

Key:
MT2 receptors = target: T1, MT2 receptors (Homo sapiens, UniProt P49286); settings: fraction of the affinity of ramelteon
T1 sequence (P49286 1-362): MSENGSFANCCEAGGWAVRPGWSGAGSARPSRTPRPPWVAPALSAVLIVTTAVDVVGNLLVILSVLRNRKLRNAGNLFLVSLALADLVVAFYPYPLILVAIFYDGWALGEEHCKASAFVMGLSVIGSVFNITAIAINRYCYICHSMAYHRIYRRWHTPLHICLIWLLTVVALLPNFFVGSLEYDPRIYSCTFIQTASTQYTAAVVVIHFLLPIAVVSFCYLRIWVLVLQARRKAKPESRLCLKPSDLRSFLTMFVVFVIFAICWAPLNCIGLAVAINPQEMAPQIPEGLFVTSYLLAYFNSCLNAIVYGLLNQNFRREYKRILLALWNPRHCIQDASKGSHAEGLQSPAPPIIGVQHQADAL

MT1 receptors = MT1 receptors (Homo sapiens, UniProt P48039); settings: fraction of the affinity of ramelteon
[1] = oral administration, clinical data
[2] = taken with a high-fat meal versus fasting

Chain of MT1 receptors (P48039 whole entry): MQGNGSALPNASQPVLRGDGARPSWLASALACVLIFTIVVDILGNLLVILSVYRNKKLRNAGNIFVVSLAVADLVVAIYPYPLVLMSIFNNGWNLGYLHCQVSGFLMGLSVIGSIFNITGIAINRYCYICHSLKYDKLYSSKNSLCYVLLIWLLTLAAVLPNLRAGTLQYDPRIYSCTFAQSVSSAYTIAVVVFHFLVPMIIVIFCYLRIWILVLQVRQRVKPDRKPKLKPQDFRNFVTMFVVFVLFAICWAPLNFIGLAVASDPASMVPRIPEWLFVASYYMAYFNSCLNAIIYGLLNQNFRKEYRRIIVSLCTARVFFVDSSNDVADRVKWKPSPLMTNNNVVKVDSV

affinity with MT2 receptors relative to the metabolic substrate (MT2 receptors)	affinity with MT1 receptors relative to the metabolic substrate (MT1 receptors)	total amount relative to the metabolic substrate (main metabolite versus ramelteon)	drug absorbed after oral administration [1]	median time to peak drug concentration [1]	absolute bioavailability (oral administration, first pass effect)	AUC higher than that of fasting administration (taken with a high-fat meal)	Cmax reduction [2]	median Tmax delay [2]	Structure (SMILES)
one tenth	about one fifth	20-100 times	–	–	–	–	–	–	CC(O)C(=O)NCC[C@@H]1CCc2ccc3c(c21)CCO3 (stereo partly drawn) [M-II]
–	–	–	At least 84%	approximately 0.75 (0.5-1.5) h	1.4%	31%	22%	45 min	CCC(=O)NCC[C@@H]1CCc2ccc3c(c21)CCO3 [ramelteon, Ramelteon]
